Assay results: patent US9999616B2 (ZENITH EPIGENETICS LTD., priority 2013, dated 2018)

Assays:
Human AML MV-4-11 cells = test: Inhibition of cell proliferation in MV4-11 cells (CellTiter Aqueous One); format: cell-based; settings: MV4-11, 72 h
Method in brief: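 MV4-11 cells, 5×10^4 per well in IMDM with 10% FBS, were exposed to increasing compound concentrations or 0.1% DMSO for 72 h at 37 °C in triplicate. Viability was read by MTS (CellTiter Aqueous One) absorbance at 490 nm after 3-4 h. IC50 was derived from background-corrected signal relative to DMSO.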

[1] = tested on: c-myc in Human AML MV4-11 cells; test: Inhibition of cMYC expression (mRNA, real-time PCR) in MV4-11 cells; format: cell-based; settings: 3 h treatment, cMYC mRNA by real-time PCR
Method in brief: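 MV4-11 cells in IMDM with 10% FBS were treated with increasing compound concentrations (DMSO 0.1%) for 3 h at 37 °C, in triplicate. Isolated mRNA was quantified by one-step TaqMan RT-qPCR, cMYC Ct normalized to cyclophilin, and fold expression given relative to DMSO control.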

[2] = target: Brd4 bromodomain 1 (BRD4(1)) (Homo sapiens, UniProt O60885); test: Inhibition of tetra-acetylated histone H4 binding to Brd4 bromodomain 1, measured by FRET (HTRF); design: made in house; host or cells: E. coli BL21(DE3); settings: 2 h at room temperature
Method in brief: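 N-terminally His-tagged bromodomain (200 nM), expressed in E. coli and purified by Ni affinity and size exclusion, was incubated with biotinylated tetra-acetylated H4 peptide (25-50 nM), Eu-cryptate streptavidin and XL665 anti-His in HEPES pH 7.4 buffer with 0.2% DMSO. Reactions ran 2 h at room temperature. IC50 came from the 665/620 nm fluorescence decrease.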

hIL-6 mRNA = test: Inhibition of hIL-6 mRNA transcription in LPS-stimulated U937 macrophages; format: cell-based, Human; settings: Homo sapiens, U-937, PMA-differentiated U937 cells, 1 h pretreatment, LPS 3 h, read-out: IL-6 activity
Experimental: Human leukemic monocyte lymphoma U937 cells (CRL-1593.2) were plated at a density of 3.2×10^4 cells per well in a 96-well plate in 100 μL RPMI-1640 containing 10% FBS and penicillin/streptomycin, and differentiated into macrophages for 3 days in 60 ng/mL PMA ([…]) at 37° C. in 5% CO2 prior to the addition of compound. The cells were pretreated for 1 h with increasing concentrations of test compound in 0.1% DMSO prior to stimulation with 1 ug/mL lipopolysaccharide from Escherichia coli. Triplicate wells were used for each concentration. The cells were incubated at 37° C., 5% CO2 for 3 h before the cells were harvested. At time of harvest, media was removed and cells were rinsed in 200 μL PBS. Cells were harvested using the mRNA Catcher PLUS kit according to manufacturer's instructions. The eluted mRNA was then used in a one-step quantitative real-time PCR reaction using components of the RNA UltraSense™ One-Step Kit (Life Technologies) together with Applied Biosystems TaqMan® primer-probes for hIL-6 and Cyclophilin. Real-time PCR plates were run on a ViiA™7 real time PCR machine (Applied Biosystems), data was analyzed, normalizing the Ct values for hlL-6 to an internal control, prior to determining the fold expression of each sample, relative to the control.

Row | IC50 (Human AML MV-4-11 cells) | IC50 [1] | IC50 [2] | IC50 (hIL-6 mRNA) | SMILES
1 | 0.3 to 3 µM | 0.3 to 3 µM | ≤ 0.3 µM | 0.3 to 3 µM | Cc1nc2c(-c3c(C)ncnc3C)cc(-c3c(C)noc3C)cc2[nH]1 [Example Compound 98, 4-(4-(4,6-dimethyl-pyrimidin-5-yl)-2-methyl-1H-benzo[d]imidazol-6-yl)-3,5-dimethyl isoxazole]
2 | ≤ 0.3 µM | ≤ 0.3 µM | ≤ 0.3 µM | ≤ 0.3 µM | Cc1nc2c(-c3c(C)nc(N)nc3C)cc(-c3c(C)noc3C)cc2[nH]1 [Example Compound 99, 5-(6-(3,5-dimethyl-isoxazol-4-yl)-2-methyl-1H-benzo[d]imidazol-4-yl)-4,6-dimethyl pyrimidin-2-amine]
3 | 0.3 to 3 µM | 0.3 to 3 µM | ≤ 0.3 µM | ≤ 0.3 µM | Cc1nc2c(-c3scnc3C)cc(-c3c(C)noc3C)cc2[nH]1 [Example Compound 104, 3,5-dimethyl-4-(2-methyl-4-(4-methyl-thiazol-5-yl)-1H-benzo[d]imidazol-6-yl)isoxazole]
4 | 0.3 to 3 µM | ≤ 0.3 µM | ≤ 0.3 µM | ≤ 0.3 µM | Cc1nc2c(-c3cc(Cl)ccc3C)cc(-c3c(C)noc3C)cc2[nH]1 [Example Compound 105, 4-(4-(5-chloro-2-methyl-phenyl)-2-methyl-1H-benzo[d]imidazol-6-yl)-3,5-dimethyl isoxazole]
5 | 0.3 to 3 µM | 0.3 to 3 µM | ≤ 0.3 µM | 0.3 to 3 µM | Cc1nc2c(-c3cccc(C)c3F)cc(-c3c(C)noc3C)cc2[nH]1 [Example Compound 106, 4-(4-(2-fluoro-3-methyl-phenyl)-2-methyl-1H-benzo[d]imidazol-6-yl)-3,5-dimethyl isoxazole]
6 | 0.3 to 3 µM | 0.3 to 3 µM | ≤ 0.3 µM | 0.3 to 3 µM | COc1ccc(Cl)cc1-c1cc(-c2c(C)noc2C)cc2[nH]c(C)nc12 [Example Compound 107, 4-(4-(5-chloro-2-methoxy-phenyl)-2-methyl-1H-benzo[d]imidazol-6-yl)-3,5-dimethyl isoxazole]
7 | 0.3 to 3 µM | 0.3 to 3 µM | ≤ 0.3 µM | 0.3 to 3 µM | COc1ccc(F)c(-c2cc(-c3c(C)noc3C)cc3[nH]c(C)nc23)c1 [Example Compound 108, 4-(4-(2-fluoro-5-methoxy-phenyl)-2-methyl-1H-benzo[d]imidazol-6-yl)-3,5-dimethyl isoxazole]
8 | 0.3 to 3 µM | 0.3 to 3 µM | ≤ 0.3 µM | ≤ 0.3 µM | CCOc1ncccc1-c1cc(-c2c(C)noc2C)cc2[nH]c(C)nc12 [Example Compound 109, 4-(4-(2-ethoxy-pyridin-3-yl)-2-methyl-1H-benzo[d]imidazol-6-yl)-3,5-dimethyl isoxazole]
9 | 0.3 to 3 µM | 0.3 to 3 µM | ≤ 0.3 µM | 0.3 to 3 µM | Cc1nc2c(-c3cccc4ccncc34)cc(-c3c(C)noc3C)cc2[nH]1 [Example Compound 110, 4-(4-(iso-quinolin-8-yl)-2-methyl-1H-benzo[d]imidazol-6-yl)-3,5-dimethyl isoxazole]
10 | 0.3 to 3 µM | ≤ 0.3 µM | ≤ 0.3 µM | ≤ 0.3 µM | COc1ccc(F)cc1-c1cc(-c2c(C)noc2C)cc2[nH]c(C)nc12 [Example Compound 112, 4-(4-(5-fluoro-2-methoxy-phenyl)-2-methyl-1H-benzo[d]imidazol-6-yl)-3,5-dimethyl-isoxazole]
11 | ≤ 0.3 µM | ≤ 0.3 µM | ≤ 0.3 µM | ≤ 0.3 µM | COCc1ccccc1-c1cc(-c2c(C)noc2C)cc2[nH]c(C)nc12 [Example Compound 117, 4-(4-(2-(methoxy-methyl)phenyl)-2-methyl-1H-benzo[d]imidazol-6-yl)-3,5-dimethyl-isoxazole]
12 | 0.3 to 3 µM | 0.3 to 3 µM | ≤ 0.3 µM | 0.3 to 3 µM | COc1ncccc1-c1cc(-c2c(C)noc2C)cc2[nH]c(C)nc12 [Example Compound 118, 4-(4-(2-methoxy-pyridin-3-yl)-2-methyl-1H-benzo[d]imidazol-6-yl)-3,5-dimethyl isoxazole]
13 | 0.3 to 3 µM | 0.3 to 3 µM | ≤ 0.3 µM | ≤ 0.3 µM | Cc1ccncc1-c1cc(-c2c(C)noc2C)cc2cn[nH]c12 [Example Compound 119, 3,5-dimethyl-4-(7-(4-methyl-pyridin-3-yl)-1H-indazol-5-yl)isoxazole]
14 | 0.3 to 3 µM | ≤ 0.3 µM | ≤ 0.3 µM | ≤ 0.3 µM | Cc1nn(C)cc1-c1cc(-c2c(C)noc2C)cc2cn[nH]c12 [Example Compound 120, 4-(7-(1,3-dimethyl-1H-pyrazol-4-yl)-1H-indazol-5-yl)-3,5-dimethyl isoxazole]

Second part, the compound before the results:

Row | SMILES | IC50 (Human AML MV-4-11 cells) | IC50 [1] | IC50 [2] | IC50 (hIL-6 mRNA)
15 | Cc1nc2c(-c3ccccc3OC(F)(F)F)cc(-c3c(C)noc3C)cc2[nH]1 [Example Compound 77, 3,5-dimethyl-4-(2-methyl-4-(2-(trifluoro-methoxy)phenyl)-1H-benzo[d]imidazol-6-yl)isoxazole] | 0.3 to 3 µM | ≤ 0.3 µM | ≤ 0.3 µM | 0.3 to 3 µM
16 | Cc1nc2c(-c3cccnc3)cc(-c3c(C)noc3C)cc2[nH]1 [Example Compound 79, 3,5-dimethyl-4-(2-methyl-4-(pyridin-3-yl)-1H-benzo[d]imidazol-6-yl)isoxazole] | 0.3 to 3 µM | ≤ 0.3 µM | ≤ 0.3 µM | 0.3 to 3 µM
17 | Cc1nc2c(-c3cc(F)ccc3C(F)(F)F)cc(-c3c(C)noc3C)cc2[nH]1 [Example Compound 80, 4-(4-(5-fluoro-2-(trifluoro-methyl)phenyl)-2-methyl-1H-benzo[d]imidazol-6-yl)-3,5-dimethyl isoxazole] | 0.3 to 3 µM | ≤ 0.3 µM | ≤ 0.3 µM | 0.3 to 3 µM
18 | Cc1nc2c(-c3ncccc3C)cc(-c3c(C)noc3C)cc2[nH]1 [Example Compound 84, 3,5-dimethyl-4-(2-methyl-4-(3-methyl-pyridin-2-yl)-1H-benzo[d]imidazol-6 yl)isoxazole] | 3 to 30 µM | 0.3 to 3 µM | 0.3 to 3 µM | 0.3 to 3 µM
19 | Cc1nc2c(-c3cnccn3)cc(-c3c(C)noc3C)cc2[nH]1 [Example Compound 85, 3,5-dimethyl-4-(2-methyl-4-(pyrazin-2-yl)-1H-benzo[d]imidazol-6-yl)isoxazole] | 3 to 30 µM | 3 to 30 µM | ≤ 0.3 µM | 0.3 to 3 µM
20 | Cc1noc(C)c1-c1cc(-c2c(C)noc2C)c2cn[nH]c2c1 [Example Compound 87, 4,4′-(1H-indazole-4,6-diyl)bis(3,5-dimethylisoxazole)] | 0.3 to 3 µM | 0.3 to 3 µM | ≤ 0.3 µM | 0.3 to 3 µM
21 | Cc1nc2c(-c3ccccc3)cc(-c3c(C)noc3C)cc2[nH]1 [Example Compound 88, 3,5-dimethyl-4-(2-methyl-4-phenyl-1H-benzo[d]imidazol 6-yl)isoxazole] | 0.3 to 3 µM | 0.3 to 3 µM | ≤ 0.3 µM | 0.3 to 3 µM
22 | Cc1nc2c(-c3ccccc3C)cc(-c3c(C)noc3C)cc2[nH]1 [Example Compound 89, 3,5-dimethyl-4-(2-methyl-4-(o-tolyl)-1H-benzo[d]imidazol-6-yl)isoxazole] | 0.3 to 3 µM | ≤ 0.3 µM | ≤ 0.3 µM | 0.3 to 3 µM
23 | Cc1nc2c(-c3ccccc3F)cc(-c3c(C)noc3C)cc2[nH]1 [Example Compound 91, 4-(4-(2-fluoro-phenyl)-2-methyl-1H-benzo[d]imidazol-6-yl)-3,5-dimethyl isoxazole] | 0.3 to 3 µM | ≤ 0.3 µM | ≤ 0.3 µM | ≤ 0.3 µM
24 | Cc1noc(C)c1-c1cc(-c2c(C)noc2C)c2c(c1)ncn2C [Example Compound 93, 4,4′-(1-methyl-1H-benzo[d]imidazole-5,7-diyl)bis(3,5-dimethylisoxazole)] | 0.3 to 3 µM | ≤ 0.3 µM | ≤ 0.3 µM | ≤ 0.3 µM
25 | Cc1nc2c(-c3cc(F)ccc3C#N)cc(-c3c(C)noc3C)cc2[nH]1 [Example Compound 94, 2-(6-(3,5-dimethyl-isoxazol-4-yl)-2-methyl-1H-benzo[d]imidazol-4-yl)-4-fluoro-benzonitrile] | 0.3 to 3 µM | 0.3 to 3 µM | ≤ 0.3 µM | 0.3 to 3 µM
